One assay concerns BMDCs. Briefly: Cytokine production (ELISA) in LPS-stimulated BMDCs pre-treated with rapamycin. It counts as cell-based, C57BL/6 mice. How it is done: Bone marrow stem cells from 6-8 weeks aged C57BL/6 mice were taken, and erythrocytes were removed by using ammonium chloride lysate (0.15 M NH4Cl, 1 mM […], 0.1 mM Na2EDTA, pH7.3), and then suspension-cultured at a cell density of 10^6 cells/mL in a dendritic cell (bone-marrow derived dendritic cell, BMDC) differentiation medium (formulation of which was: RPMI 1640 complete medium (comprising 5% (v/v) FBS and 1% (v/v) pen strep), with 20 ng/ml GM-CSF, 10 ng/ml IL-4, 2 mM L-glutamine and 200 μM β-mercaptoethanol being added). After differentiation for 7 days, the cells were purified with CD11c magnetic beads to obtain BMDCs. The purified BMDCs were resuspended in a fresh dendritic cell culture medium (10^6 cells/ml), and inoculated into 24-well plate with 500 μL per well 100 nM of rapamycin or DMSO (control) were used to pre-treat the cells for 1 hour, and then the cells were stimulated with 100 ng/ml LPS for 24 hours. The supernatant was taken and the amount of IL-12 was measured by ELISA.
On the technique in general: In an ELISA, binding on a coated surface is turned into a signal by an enzyme label.

The next assay concerns BMDMs. Briefly: Real-time quantitative PCR of gene expression in LPS-stimulated BMDMs. The format is cell-based, C57BL/6 mice. The note with it: 100 nM rapamycin. How it is done: Bone marrow stem cells of 6-8 weeks aged C57BL/6 mice were taken, and the cells are cultivated at 10^6 cells/mL cell density in bone marrow-derived macrophage (BMDM) differentiation medium (formulation of which was: RPMI 1640 complete medium added with 30% (v/v) L929 conditioned medium and 1% (v/v) pen/strep). After differentiation for 4 days, the old culture medium (comprising suspended cells) was removed and fresh BMDM differentiation medium was added. The adhered BMDMs were collected on the 7th day of differentiation and used in in vitro experiment.
The BMDMs were pre-treated with 100 nM of rapamycin or DMSO for 1 hour, and then the cells were stimulated with 100 ng/ml LPS […]. The cells were collected at 1, 2, 4 and 8 hours, and were cryopreserved in a refrigerator at −80° C. for the extraction and preparation of RNA.
TRIZOL (Invitrogen) method was used to extract RNA of BMDM, and Superscript™ III Reverse Transcriptase Kit (Invitrogen) was used to respectively reverse transcribe 1 μg RNA so as to synthesize the first-strand cDNA for Real-time quantitative PCR determine of gene expression levels. The primers for Real-time quantitative PCR are shown in table 1. ΔΔ method was used to calculate the relative expression level of the determined gene compared with GAPDH.

Assay [1] has as its system HBsAg-specific antibody and T cell responses. Briefly: HBsAg immunization with Compositions 1-3 (different amounts of rapamycin + MPL). It counts as in vivo, mice. How it is done:
Composition 1, comprising (dosage for one mouse): rapamycin 5 μg, MPL 10 μg, and PBS 0.2 ml;
Composition 2, comprising (dosage for one mouse): rapamycin 20 μg, MPL 10 μg, and PBS 0.2 ml;
Composition 3, comprising (dosage for one mouse): rapamycin 100 μg, MPL 10 μg, and PBS 0.2 mL.
Mice were immunized with Compositions 1-3 in mixture with HBsAg (5 μg, dosage for one mouse) respectively, and were boosted 3 weeks after the primary immunization. The mice were killed after one week, and the serum was prepared to determine the content of HBsAg-specific IgG1, IgG2b and IgG2c (FIG. 5). Meanwhile, spleen cells (5×10^5 cells) were respectively stimulated by using 10 μg/ml of CD8^+ T cell epitope peptide ([…] or VWLSVIWM) and CD4^+ T cell epitope peptide ([…]), and after 48 hours, enzyme linked immunosorbent assays (ELISA) was used to determine the content of IFNγ in the supernatant (FIG. 5b). […] Moreover, at all of the three concentrations, rapamycin has increased T cell response induced by MPL, especially the activation of CD4^+ and CD8^+ T cells which secrete IFN-γ (FIG. 5b).

Where [2] appears, read: BMDCs, 100 nM rapamycin, 100 ng/ml LPS.
[3] abbreviates: 100 ng/ml LPS, during 4 hours of LPS stimulation, relative to GAPDH.
The mark [4] stands for this setting: 5 μg of rapamycin + MPL 10 μg, HBsAg 5 μg per mouse.

Entries after “also recorded” stand apart in the source; their conditions may differ.

Take `CO[C@H]1C[C@@H]2CC[C@@H](C)[C@@](O)(O2)C(=O)C(=O)N2CCCC[C@H]2C(=O)O[C@H]([C@H](C)C[C@@H]2CC[C@@H](O)[C@H](OC)C2)CC(=O)[C@H](C)/C=C(\C)[C@@H](O)[C@@H](OC)C(=O)[C@H](C)C[C@H](C)/C=C/C=C/C=C/1C` [rapamycin]: the “amount of IL-12, increase compared with the control group” value with BMDCs (100 nM rapamycin pre-treatment 1 hour, 100 ng/ml LPS 24 hours, supernatant ELISA, DMSO control) is “more than 3 times”. In addition, in the assay on BMDCs (setting [2]), the “LPS-induced IL-12 production” value is on record as “enhanced; also recorded: promote”, the “induced-secretion of IL-23” value is “remarkably increase; also recorded: enhanced; also recorded: promote” and the “production of IL-10” value is listed as “inhibit the production; also recorded: inhibited”. For the same compound, in the assay on BMDCs (BMDCs, 100 nM rapamycin, 100 ng/ml LPS, listed as Rapamycin), the “LPS-induced IL-12 production” value is “significantly enhance”. In the assay with BMDMs (setting [3]), the “expression of IL-10” value is “inhibit the expression”, the “transcriptional expression of IL-12a” value is “increased the transcriptional expression; also recorded: promote the transcript expression”, the “transcriptional expression of IL-12b” value is on record as “increased the transcriptional expression; also recorded: promote the transcript expression” and the “transcriptional expression of IL-23a” value is “increased the transcriptional expression; also recorded: promote the transcript expression”. In addition, in the assay on BMDMs (LPS), the “transcription and expression of CXCL2” value is “did not affect the transcription and expression”; the “transcription and expression of TNFα” value is “did not affect the transcription and expression”. Moreover, in the assay on BMDMs (upon stimulation of LPS), the “expression of CD40” value was “no remarkable influence”, the “expression of CD80” value is reported as “no remarkable influence”, the “expression of CD86” value is “no remarkable influence” and the “expression of PD-L1” value is reported as “remarkably decreased the expression; also recorded: inhibit the expression”. In assay [1] (setting [4]), the “antibody titers induced by MPL” value is “significantly increase”, the “increase of secretion of IgG2b induced by MPL” value is recorded as approximately 5 times and the “increase of secretion of IgG2c induced by MPL” value is listed as approximately 5 times. The “T cell response induced by MPL (IFN-γ secreting CD4+ and CD8+ T cells)” value in assay [1] (all three amounts of rapamycin (5, 20, 100 μg) + MPL 10 μg, IFNγ ELISA of peptide-stimulated spleen cells) was “increased”. Besides, the “HBsAg-specific antibody responses enhanced by MPL” value in assay [1] (different amounts of rapamycin, FIG. 5a) is “increased”. For the same compound, the “antibodies induced by MPL” value in assay [1] (rapamycin raised to 20 or 100 μg + MPL 10 μg, HBsAg 5 μg per mouse) is on record as “further enhanced”. Moreover, in assay [1] (rapamycin within the range of 5-100 μg), the “MPL-induced antibody titers and T cell response, dose dependence” value is on record as “dose-dependent manner”.

The record behind these values is patent US20160279236A1, “USE OF RAPAMYCIN AS VACCINE ADJUVANT AND PREPARATION METHOD THEREFOR” (INSTITUT PASTEUR OF SHANGHAI, CHINESE ACADEMY OF SCIENCES, priority 2013, published 2016).
